# Data: US20160338351A1, “(S)-ABSCISIC ACID DERIVATIVES FOR ENHANCED GRAPE COLORATION” (Valent BioSciences Corporation, priority 2015, published 2016)
# Counter-ions that a name gives are not always drawn.
# Columns and labels:
# Format in all cases: in vivo, Vitis vinifera
# [1] = system: Crimson Seedless grapes; assay: Trial, Example 2: visual color rating of grape clusters on a 1 to 8 scale; set-up: key to Color Ratings: 1 = little/no red color, 8 = deep/dark red color; conditions: for Color Ratings: applied day 0 and day 11, 1 to 8 grading scale; for potency in promoting red color development compared with another compound: Crimson Seedless grapes; for red color development in comparison with the untreated control: six-week evaluation period
# Experimental: Another trial was conducted in California on Crimson Seedless grapes to compare the efficacy of S-ABA, 3′-methyl-(S)-ABA and 3′-propargyl-(S)-ABA in promoting coloration. All three compounds were formulated as aqueous solutions of the corresponding potassium salt to the desired concentrations, with the final pHs being between 6.5 and 7.2. Individual Crimson Seedless grape clusters were selected and tagged, with 20 tagged clusters per treatment. The solutions were applied as cluster-directed sprays using a trigger sprayer at 15 to 20 milliliters per cluster which ensured good coverage of the grapes. The treatments were applied on day 0 and day 11 of the trial. Periodically during the trial, the grape clusters were evaluated for color development by visual ratings over a six-week period and the coloration was graded on a 1 to 8 grading scale, where a rating of 1 has very little or no red color and a rating of 8 has a deep or dark red color.
# [2] = system: Crimson Seedless grape clusters; assay: Field study, Example 1: visual rating of red grape coloration, % of berries with marketable color; conditions: for activity relative to S-ABA for enhancing grape coloration: from % marketable color data, 40 ppm vs 400 ppm S-ABA
# Experimental: (§1) A field study was conducted in California to compare the efficacy of S-ABA to 3′-methyl-(S)-ABA in promoting red grape coloration. S-ABA and 3′-methyl-(S)-ABA were formulated as aqueous solutions of the corresponding potassium salt to the desired concentrations with the final pHs being between 6.5 and 7.2. Individual Crimson Seedless grape clusters were selected and tagged, with 20 tagged clusters per treatment. The treatments were applied as cluster-directed sprays using a trigger sprayer at 15 to 20 mL per cluster to ensured good coverage of the grapes. Application of 15 to 20 milliliters per cluster simulates application of about 109 gallons per acre directed at the approximately 40 clusters per vine in a vineyard with 518 vines per acre. Based on these estimates, Applicant determined the approximate grams per acre. The equation is as follows: 20 ml/cluster×40 cluster/vine=800 ml/vine×518 vine/acre=(414,400 ml/acre)/(1000 ml/liter)=414 liters/acre. An estimation of grams per acre was made by multiplying the mg per cluster with 20,720 clusters/acre (40 clusters/vine×518 vines/acre=20,720 clusters/acre).
# (§2) Periodically after the treatments, the grape clusters were evaluated for color development by visual ratings over a six-week period. The coloration was graded on a 1 to 8 grading scale, where a rating of 1 has very little or no red color and a rating of 8 has a deep or dark red color. The percentages of berries that reached marketable red coloration for each cluster were averaged and recorded for each treatment. Additionally, representative berries from each treatment group were harvested about four weeks after treatment and analyzed for anthocyanin content.
# [3] = system: Crimson Seedless grape clusters; assay: Field study, Example 1: anthocyanin content of berries harvested about four weeks after treatment; conditions: for Total Anthocyanin Content: berries harvested about four weeks after treatment
# Experimental: as §1, §2
# [4] = 4 ppm, 0.06-0.08 mg/cluster, 1.2-1.6 g/acre, 3 DAT
# [5] = 4 ppm, 0.06-0.08 mg/cluster, 1.2-1.6 g/acre, 10 DAT
# [6] = 4 ppm, 0.06-0.08 mg/cluster, 1.2-1.6 g/acre, 14 DAT
# [7] = 4 ppm, 0.06-0.08 mg/cluster, 1.2-1.6 g/acre, 21 DAT
# [8] = 4 ppm, 0.06-0.08 mg/cluster, 1.2-1.6 g/acre, 31 DAT
# [9] = 4 ppm, 0.06-0.08 mg/cluster, 1.2-1.6 g/acre, 41 DAT
# [10] = 40 ppm, 0.6-0.8 mg/cluster, 12-16 g/acre, 3 DAT
# [11] = 40 ppm, 0.6-0.8 mg/cluster, 12-16 g/acre, 10 DAT
# [12] = 40 ppm, 0.6-0.8 mg/cluster, 12-16 g/acre, 14 DAT
# [13] = 40 ppm, 0.6-0.8 mg/cluster, 12-16 g/acre, 21 DAT
# [14] = 40 ppm, 0.6-0.8 mg/cluster, 12-16 g/acre, 31 DAT
# [15] = 40 ppm, 0.6-0.8 mg/cluster, 12-16 g/acre, 41 DAT (end of six-week evaluation)
smiles,measurement,setting,value
"CC1=C(C)[C@](O)(/C=C/C(C)=C\C(=O)O)C(C)(C)CC1=O [3′-methyl-(S)-ABA, K^+ salt, (2Z,4E)-5-((S)-1-hydroxy-2,3,6,6-tetramethyl-4-oxocyclohex-2-en-1-yl)-3-methylpenta-2,4-dienoic acid]",Color Ratings,[1]; [4],1
same,Color Ratings,[1]; [5],1.6
same,Color Ratings,[1]; [6],1.9
same,Color Ratings,[1]; [7],2.4
same,Color Ratings,[1]; [8],2.7
same,Color Ratings,[1]; [9],2.8
same,Color Ratings,"[1]; 20 ppm, 6-8 g/acre, 3 DAT",1.3
same,Color Ratings,"[1]; 20 ppm, 6-8 g/acre, 10 DAT",1.7
same,Color Ratings,"[1]; 20 ppm, 6-8 g/acre, 14 DAT",2.3
same,Color Ratings,"[1]; 20 ppm, 6-8 g/acre, 21 DAT",2.9
same,Color Ratings,"[1]; 20 ppm, 6-8 g/acre, 31 DAT",3.5
same,Color Ratings,"[1]; 20 ppm, 6-8 g/acre, 41 DAT",3.5
same,Color Ratings,[1]; [10],1.1
same,Color Ratings,[1]; [11],1.3
same,Color Ratings,[1]; [12],2.7
same,Color Ratings,[1]; [13],3.9
same,Color Ratings,[1]; [14],4.7
same,Color Ratings,[1]; [15],5.5
same,potency in promoting red color development compared with another compound,[1],more effective than S-ABA
same,red color development in comparison with the untreated control,[1],dose-dependent accelerated red color development
same,coloration effect compared with 6 to 8 mg per cluster (400 ppm) of S-ABA,"[2]; 0.6 to 0.8 mg per cluster (40 ppm, 15 to 20 mL)",even more efficacious
same,"Coloring Ratings, % of the berries with marketable color","[2]; 20 ppm, 0.3-0.4 mg/cluster, 6-8 grams/acre, 7 DAT",34%
same,"Coloring Ratings, % of the berries with marketable color","[2]; 20 ppm, 0.3-0.4 mg/cluster, 6-8 grams/acre, 14 DAT",67%
same,"Coloring Ratings, % of the berries with marketable color","[2]; 20 ppm, 0.3-0.4 mg/cluster, 6-8 grams/acre, 27 DAT",79%
same,"Coloring Ratings, % of the berries with marketable color","[2]; 20 ppm, 0.3-0.4 mg/cluster, 6-8 grams/acre, 33 DAT",85%
same,"Coloring Ratings, % of the berries with marketable color","[2]; 20 ppm, 0.3-0.4 mg/cluster, 6-8 grams/acre, 43 DAT",89%
same,"Coloring Ratings, % of the berries with marketable color","[2]; 40 ppm, 0.6-0.8 mg/cluster, 12-16 grams/acre, 7 DAT",52%
same,"Coloring Ratings, % of the berries with marketable color","[2]; 40 ppm, 0.6-0.8 mg/cluster, 12-16 grams/acre, 14 DAT",83%
same,"Coloring Ratings, % of the berries with marketable color","[2]; 40 ppm, 0.6-0.8 mg/cluster, 12-16 grams/acre, 27 DAT",92%
same,"Coloring Ratings, % of the berries with marketable color","[2]; 40 ppm, 0.6-0.8 mg/cluster, 12-16 grams/acre, 33 DAT",95%
same,"Coloring Ratings, % of the berries with marketable color","[2]; 40 ppm, 0.6-0.8 mg/cluster, 12-16 grams/acre, 43 DAT",97%
same,"Coloring Ratings, % of the berries with marketable color","[2]; 200 ppm, 3-4 mg/cluster, 60-80 grams/acre, 7 DAT",72%
same,"Coloring Ratings, % of the berries with marketable color","[2]; 200 ppm, 3-4 mg/cluster, 60-80 grams/acre, 14 DAT",89%
same,"Coloring Ratings, % of the berries with marketable color","[2]; 200 ppm, 3-4 mg/cluster, 60-80 grams/acre, 27 DAT",95%
same,"Coloring Ratings, % of the berries with marketable color","[2]; 200 ppm, 3-4 mg/cluster, 60-80 grams/acre, 33 DAT",95%
same,"Coloring Ratings, % of the berries with marketable color","[2]; 200 ppm, 3-4 mg/cluster, 60-80 grams/acre, 43 DAT",100%
same,"Coloring Ratings, % of the berries with marketable color","[2]; 400 ppm, 6-8 mg/cluster, 120-160 grams/acre, 7 DAT",76%
same,"Coloring Ratings, % of the berries with marketable color","[2]; 400 ppm, 6-8 mg/cluster, 120-160 grams/acre, 14 DAT",98%
same,"Coloring Ratings, % of the berries with marketable color","[2]; 400 ppm, 6-8 mg/cluster, 120-160 grams/acre, 27 DAT",99%
same,"Coloring Ratings, % of the berries with marketable color","[2]; 400 ppm, 6-8 mg/cluster, 120-160 grams/acre, 33 DAT",99%
same,"Coloring Ratings, % of the berries with marketable color","[2]; 400 ppm, 6-8 mg/cluster, 120-160 grams/acre, 43 DAT",99%
same,marketable coloration,"[2]; 400 ppm, 6 to 8 mg per cluster, 15 to 20 mL, in two weeks",~90%
same,activity relative to S-ABA for enhancing grape coloration,[2],approximately 10 times
same,activity relative to S-ABA for enhancing grape coloration,[2]; listed as 3′-methyl-(S)-abscisic acid,ten times as effective as S-ABA
same,Total Anthocyanin Content,"[3]; 0.3-0.4 mg/cluster (20 ppm, 15-20 mL)",68 mg/L
same,Total Anthocyanin Content,"[3]; 0.6-0.8 mg/cluster (40 ppm, 15-20 mL)",78 mg/L
same,Total Anthocyanin Content,"[3]; 3-4 mg/cluster (200 ppm, 15-20 mL)",181 mg/L
same,Total Anthocyanin Content,"[3]; 6-8 mg/cluster (400 ppm, 15-20 mL)",247 mg/L
same,activity relative to S-ABA in promoting Crimson Seedless grape coloration,[3]; from anthocyanin analysis of Table 2,approximately 10 times
same,calculated relative potency versus S-ABA,[3]; rate of S-ABA needed to achieve the same effect,8.4 times
"C#CCC1=C(C)[C@](O)(/C=C/C(C)=C\C(=O)O)C(C)(C)CC1=O [3′-propargyl-(S)-ABA, K^+ salt, (2Z,4E)-5-((S)-1-hydroxy-2,6,6-trimethyl-4-oxo-3-(prop-2-yn-1-yl)cyclohex-2-en-1-yl)-3-methylpenta-2,4-dienoic acid]",Color Ratings,[1]; [4],1.1
same,Color Ratings,[1]; [5],1.3
same,Color Ratings,[1]; [6],1.5
same,Color Ratings,[1]; [7],1.9
same,Color Ratings,[1]; [8],2.4
same,Color Ratings,[1]; [9],2.4
same,Color Ratings,"[1]; 20 ppm, 6-8 g/acre, 3 DAT",1.1
same,Color Ratings,"[1]; 20 ppm, 6-8 g/acre, 10 DAT",1.5
same,Color Ratings,"[1]; 20 ppm, 6-8 g/acre, 14 DAT",1.8
same,Color Ratings,"[1]; 20 ppm, 6-8 g/acre, 21 DAT",2.2
same,Color Ratings,"[1]; 20 ppm, 6-8 g/acre, 31 DAT",2.9
same,Color Ratings,"[1]; 20 ppm, 6-8 g/acre, 41 DAT",3.1
same,Color Ratings,[1]; [10],1.1
same,Color Ratings,[1]; [11],1.5
same,Color Ratings,[1]; [12],1.8
same,Color Ratings,[1]; [13],2.6
same,Color Ratings,[1]; [14],3.1
same,Color Ratings,[1]; [15],3.3
same,potency in promoting red color development compared with another compound,[1],less potent than 3′-methyl-(S)-ABA
same,red color development in comparison with the untreated control,[1],accelerated coloration
